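Compound exposure: 48 hours, 5 concentrations, 96-well plates. The concentration for 50% growth inhibition is given as GI50.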 Activity calls are given as the source filed them. Cut-off read from the data, not from the text of the source: active = GI50 up to about 1.1 µM and inactive = higher.
Columns and labels:
Test in all cases: NCI anticancer screen, dose series, 48 h
NCI/ADR-RES = system: NCI/ADR-RES
T47D = system: T47D
SF-295 = system: SF-295
HL-60 = system: HL-60
KM12 = system: KM12
CCRF-CEM = system: CCRF-CEM
PC-3 = system: PC-3
OVCAR-3 = system: OVCAR-3
RXF 393 = system: RXF 393
NCI-H226 = system: NCI-H226
BT-549 = system: BT-549
SR = system: SR
RPMI-8226 = system: RPMI-8226
DMS-114 = system: DMS-114
MOLT-4 = system: MOLT-4
HT-29 = system: HT-29
K562 = system: K562
DLD-1 = system: DLD-1
M19-MEL = system: M19-MEL
HOP-62 = system: HOP-62
NCI-H522 = system: NCI-H522
NCI-H23 = system: NCI-H23
OVCAR-5 = system: OVCAR-5
SNB-19 = system: SNB-19
HOP-92 = system: HOP-92
Malme-3M = system: Malme-3M
ACHN = system: ACHN
KM-20L2 = system: KM-20L2
EKVX = system: EKVX
HCT-116 = system: HCT-116
HCT-15 = system: HCT-15
DU-145 = system: DU-145
XF498 = system: XF498
Hs-578T = system: Hs-578T
OVCAR-4 = system: OVCAR-4
UO-31 = system: UO-31
HOP-18 = system: HOP-18
LXFL 529 = system: LXFL 529
HCC 2998 = system: HCC 2998
UACC-257 = system: UACC-257
IGROV-1 = system: IGROV-1
M14 = system: M14
COLO 205 = system: COLO 205
786-0 = system: 786-0
DMS-273 = system: DMS-273
UACC-62 = system: UACC-62
SW-620 = system: SW-620
TK-10 = system: TK-10
SN12C = system: SN12C
U-251 = system: U-251
A549 = system: A549
CAKI-1 = system: CAKI-1
SK-MEL-28 = system: SK-MEL-28
SK-MEL-2 = system: SK-MEL-2
NCI-H460 = system: NCI-H460
SNB-75 = system: SNB-75
SF-268 = system: SF-268
SF-539 = system: SF-539
OVCAR-8 = system: OVCAR-8
SK-MEL-5 = system: SK-MEL-5
MDA-N = system: MDA-N
A498 = system: A498
MCF7 = system: MCF7
SNB-78 = system: SNB-78
MDA-MB-435 = system: MDA-MB-435
SK-OV-3 = system: SK-OV-3
MDA-MB-231 = system: MDA-MB-231
LOX IMVI = system: LOX IMVI

With `CCc1ccc(NCc2cc(OC)c(OC)c(OC)c2)cc1` the GI50 (NCI/ADR-RES) was 61.1 nM (active), the GI50 (T47D) was 302 nM (active) and the GI50 (SF-295) was 197 nM (active). For the same compound, the GI50 (HL-60) was 56 nM (active), the GI50 (KM12) was 73.8 nM (active) and the GI50 (CCRF-CEM) was 284 nM (active). For the same compound, the GI50 (PC-3) was 305 nM (active), the GI50 (OVCAR-3) was 211 nM (active) and the GI50 (RXF 393) was 211 nM (active). The GI50 (NCI-H226) was 3300 nM (inactive), the GI50 (BT-549) was < 10 nM (active) and the GI50 (SR) was < 28.2 nM (active). The GI50 (RPMI-8226) was 367 nM (active), the GI50 (DMS-114) was 457 nM (active) and the GI50 (MOLT-4) was 290 nM (active). The GI50 (HT-29) was 176 nM (active), the GI50 (K562) was 84.5 nM (active) and the GI50 (DLD-1) was 492 nM (active). For the same compound, the GI50 (M19-MEL) was 413 nM (active), the GI50 (HOP-62) was 532 nM (active) and the GI50 (NCI-H522) was 186 nM (active). The GI50 (NCI-H23) was 611 nM (active), the GI50 (OVCAR-5) was 3020 nM (inactive) and the GI50 (SNB-19) was 522 nM (active). The GI50 (HOP-92) was 1240 nM (inactive), the GI50 (Malme-3M) was 232 nM (active) and the GI50 (ACHN) was 2240 nM (inactive). For the same compound, the GI50 (KM-20L2) was 267 nM (active), the GI50 (EKVX) was 4200 nM (inactive) and the GI50 (HCT-116) was 99.8 nM (active). The GI50 (HCT-15) was 164 nM, the GI50 (DU-145) was 716 nM (active) and the GI50 (XF498) was 933 nM (active). For the same compound, the GI50 (Hs-578T) was 261 nM (active) and the GI50 (OVCAR-4) was 18200 nM (inactive).
`CC(=O)NC(CCCNC(=O)N(CCCl)N=O)C(=O)NCc1ccccc1` (centres undefined) was tested, and the GI50 (SF-295) was 27900 nM (inactive), the GI50 (HL-60) was 24000 nM (inactive) and the GI50 (KM12) was > 100000 nM (inactive). For the same compound, the GI50 (CCRF-CEM) was 46300 nM (inactive), the GI50 (UO-31) was > 100000 nM (inactive) and the GI50 (OVCAR-3) was > 100000 nM (inactive). The GI50 (RXF 393) was > 100000 nM (inactive), the GI50 (NCI-H226) was > 100000 nM (inactive) and the GI50 (SR) was 35600 nM (inactive). The GI50 (RPMI-8226) was > 100000 nM (inactive), the GI50 (HOP-18) was > 100000 nM (inactive) and the GI50 (DMS-114) was > 100000 nM (inactive). The GI50 (LXFL 529) was > 100000 nM (inactive), the GI50 (HCC 2998) was > 100000 nM (inactive) and the GI50 (UACC-257) was > 100000 nM (inactive). The GI50 (MOLT-4) was 38500 nM (inactive), the GI50 (HT-29) was > 100000 nM (inactive) and the GI50 (IGROV-1) was 59700 nM (inactive). The GI50 (M14) was > 100000 nM (inactive), the GI50 (K562) was > 100000 nM (inactive) and the GI50 (COLO 205) was > 100000 nM (inactive). The GI50 (786-0) was 6870 nM (inactive), the GI50 (DLD-1) was 58600 nM (inactive) and the GI50 (M19-MEL) was > 100000 nM (inactive). The GI50 (DMS-273) was > 100000 nM (inactive), the GI50 (HOP-62) was 40000 nM (inactive) and the GI50 (NCI-H522) was > 100000 nM (inactive). The GI50 (UACC-62) was > 100000 nM (inactive), the GI50 (NCI-H23) was > 100000 nM (inactive) and the GI50 (SW-620) was > 100000 nM (inactive). The GI50 (TK-10) was > 100000 nM (inactive), the GI50 (SNB-19) was 22600 nM (inactive) and the GI50 (SN12C) was 91400 nM (inactive). The GI50 (U-251) was 27600 nM (inactive), the GI50 (HOP-92) was > 100000 nM (inactive) and the GI50 (Malme-3M) was > 100000 nM (inactive). For the same compound, the GI50 (A549) was 69200 nM (inactive), the GI50 (CAKI-1) was > 100000 nM (inactive) and the GI50 (ACHN) was 38900 nM (inactive). The GI50 (KM-20L2) was > 100000 nM (inactive), the GI50 (SK-MEL-28) was > 100000 nM (inactive) and the GI50 (SK-MEL-2) was > 100000 nM (inactive). The GI50 (NCI-H460) was 2320 nM (inactive), the GI50 (EKVX) was > 100000 nM (inactive) and the GI50 (HCT-116) was > 100000 nM (inactive). The GI50 (SNB-75) was 9710 nM (inactive), the GI50 (SF-268) was 6530 nM (inactive) and the GI50 (HCT-15) was greater than 100000 nM. For the same compound, the GI50 (SF-539) was 11700 nM (inactive), the GI50 (XF498) was > 100000 nM (inactive) and the GI50 (OVCAR-4) was > 100000 nM (inactive). For the same compound, the GI50 (OVCAR-8) was > 100000 nM (inactive).
`Cc1n(-c2ccccc2)c2c([n+]1Cc1ccc([N+](=O)[O-])cc1)C(=O)c1ccccc1C2=O` was tested, and the GI50 (NCI/ADR-RES) was 2050 nM (inactive), the GI50 (SK-MEL-5) was 1850 nM (inactive) and the GI50 (T47D) was 1640 nM (inactive). The GI50 (SF-295) was 5450 nM (inactive), the GI50 (HL-60) was 409 nM (active) and the GI50 (KM12) was 2290 nM (inactive). For the same compound, the GI50 (CCRF-CEM) was 1820 nM (inactive), the GI50 (UO-31) was 13100 nM (inactive) and the GI50 (PC-3) was 2250 nM (inactive). For the same compound, the GI50 (OVCAR-3) was 182 nM (active), the GI50 (RXF 393) was 7660 nM (inactive) and the GI50 (NCI-H226) was 5430 nM (inactive). For the same compound, the GI50 (BT-549) was 1790 nM (inactive), the GI50 (SR) was 1720 nM (inactive) and the GI50 (RPMI-8226) was 845 nM (active). The GI50 (HOP-18) was 7190 nM (inactive), the GI50 (DMS-114) was 386 nM (active) and the GI50 (LXFL 529) was 1420 nM (inactive). The GI50 (HCC 2998) was 2260 nM (inactive), the GI50 (UACC-257) was 1690 nM (inactive) and the GI50 (MOLT-4) was 590 nM (active). The GI50 (HT-29) was 2380 nM (inactive), the GI50 (IGROV-1) was 855 nM (active) and the GI50 (M14) was 2590 nM (inactive). For the same compound, the GI50 (K562) was 1160 nM (inactive), the GI50 (COLO 205) was 1590 nM (inactive) and the GI50 (MDA-N) was 1770 nM (inactive). For the same compound, the GI50 (786-0) was 4310 nM (inactive), the GI50 (DLD-1) was 5430 nM (inactive) and the GI50 (M19-MEL) was 1160 nM (inactive). For the same compound, the GI50 (DMS-273) was 1920 nM (inactive), the GI50 (HOP-62) was 6500 nM (inactive) and the GI50 (A498) was 12200 nM (inactive). For the same compound, the GI50 (NCI-H522) was 579 nM (active), the GI50 (UACC-62) was 2030 nM (inactive) and the GI50 (MCF7) was 1370 nM (inactive). For the same compound, the GI50 (NCI-H23) was 1900 nM (inactive), the GI50 (SNB-78) was 2880 nM (inactive) and the GI50 (SW-620) was 2120 nM (inactive). The GI50 (TK-10) was 7660 nM (inactive), the GI50 (OVCAR-5) was 2020 nM (inactive) and the GI50 (SNB-19) was 1720 nM (inactive). For the same compound, the GI50 (SN12C) was 1640 nM (inactive), the GI50 (U-251) was 1750 nM (inactive) and the GI50 (HOP-92) was 2300 nM (inactive). For the same compound, the GI50 (MDA-MB-435) was 1740 nM (inactive), the GI50 (Malme-3M) was 1670 nM (inactive) and the GI50 (A549) was 3560 nM (inactive). The GI50 (CAKI-1) was 15700 nM (inactive), the GI50 (ACHN) was 3720 nM (inactive) and the GI50 (KM-20L2) was 3230 nM (inactive). The GI50 (SK-MEL-28) was 1810 nM (inactive), the GI50 (SK-MEL-2) was 1480 nM (inactive) and the GI50 (NCI-H460) was 3780 nM (inactive). The GI50 (EKVX) was 2490 nM (inactive), the GI50 (HCT-116) was 2020 nM (inactive) and the GI50 (SNB-75) was 3690 nM (inactive). For the same compound, the GI50 (SK-OV-3) was 4300 nM (inactive), the GI50 (MDA-MB-231) was 1590 nM (inactive) and the GI50 (SF-268) was 1750 nM (inactive). For the same compound, the GI50 (HCT-15) was 9120 nM, the GI50 (SF-539) was 1970 nM (inactive) and the GI50 (DU-145) was 1850 nM (inactive). The GI50 (Hs-578T) was 1780 nM (inactive), the GI50 (OVCAR-4) was 1660 nM (inactive) and the GI50 (OVCAR-8) was 2370 nM (inactive). The GI50 (LOX IMVI) was 1750 nM (inactive).

Source: ChEMBL document CHEMBL1201862, “PubChem BioAssay data set” (2004)
